Test results: patent US20200046788A1, “COMPOSITIONS AND METHODS FOR TREATMENT OF INTESTINAL INFLAMMATION AND COLON CANCER” (University of Louisville Research Foundation, Inc., priority 2016, published 2020)

Tests used:
[1] = tested on: human monocyte-derived DCs; conditions: LPS 100 ng/ml, western blot
Procedure: Western blot analysis. […] Images have been cropped for presentation.
(§1) Generation of mouse and human DCs. For the generation of mouse DCs, bone marrow cells were harvested from the femurs and tibias of mice and cultured in 6-well tissue culture plates (Costar) for 8 days in complete medium supplemented with 20 ng/ml GM-CSF and 10 ng/ml IL-4. BDNs, BDN-derived lipid or SFN was added to some wells on day 0. To obtain human DCs, peripheral blood mononuclear cells were isolated from healthy donors by Ficoll-Hypaque Plus (GE Healthcare). These studies were approved by the Institutional Review Board of University of Louisville. Monocytes were purified by a discontinuous Percoll gradient (GE Healthcare) and positive selection with the Monocyte Isolation kit (purity, >90%; Miltenyi Biotec). Monocytes were cultured in RPMI-1640 complete medium supplemented with 10% (vol/vol) heat-inactivated PCS, gentamicin ([…]), 2-mercaptoethanol (50 μM) and L-glutamine (2 mM; all from Gibco) containing IL-4 (5 ng/ml; Sigma) and recombinant human GM-CSF (35 ng/ml; Sigma) with or without SFN (10 μM). In some experiments, DCs were exposed for 24 h to LPS (100 ng/ml) with or without SFN.

[2] = tested on: CD4+ T cells
Procedure: as §1

[3] = tested on: BMDCs
Procedure: as §1

[4] = tested on: DSS-induced colitis; experiment: Transfer of BMDCs treated with LN SFN knock-out / knock-in nanoparticles into mice with DSS colitis; type: in vivo, mouse
Procedure: FIGS. 7A-7F include graphs and images showing that BDN SFN protects colitis by inducing regulatory DCs, including graphs and images showing: (FIG. 7A) the lipids extracted from BDN-derived liposome-like nanoparticles (LN) or LN with SFN knock-out (LN-SFN^−/− or knock-in (LN-SFN^+/+) and a standard SFN were separated on a thin-layer chromatography plate and developed, where a representative image was scanned using an Odyssey Scanner; (FIGS. 7B-7D) BMDCs that were treated with CBA (20 μg/ml) for 24-48 hr in the presence of DMSO, LN-SFN^−/− or LN-SFN^+/+ and were injected i.v. […] (FIG. 7E) cytokine analysis by qRT-PCR of RNA recovered from colonic LPL1; and (FIG. 7F) the cell number of CD11b^+ DCs isolated from colon and MLN in DSS-induced colitis after adoptive transfer, where data are mean±SEM. (n=5), *P<0.05, **P<0.01 (Student's t-test). Lipid extraction, TLC and lipidomic analysis. Total lipid extraction from BDNs was performed according to the method of Bligh and Dyer, and the lipids were dissolved in chloroform or methanol for analysis. […] Developed plates were initially air-dried, then sprayed with CuSO4-phosphoric acid reagent (10% CuSO4 in 8% phosphoric acid), and followed by charring at 100° C. for 10 min. […] Total lipids were determined using the phosphate assay as described previously. […] Colitis was assessed as described above.

[5] = tested on: MC38 colon cancer cells; experiment: MC38 colon cancer cells treated with SFN or BDN-derived lipids (RT-PCR); type: cell-based, mouse
Procedure: RNA extraction and PCR. Total RNA was isolated from the small intestine and colon or tumor tissue using the Qiagen RNeasy RNA isolation Kit and was used to synthesize cDNA. RNA (1 μg) was reverse-transcribed with Superscript III and random primers (Invitrogen). For quantitation of genes of interest, cDNA samples were amplified in a CFX96 Realtime System (Bio-Rad Laboratories, Hercules, Calif., USA) using SYBR Green Master Mix (Invitrogen) and specific primers (Table 2) according to the manufacturer's instructions. Fold changes in mRNA expression between treatments and controls were determined by the […] as described. Results for each sample were normalized to the concentration of GAPDH mRNA measured in the same samples and expressed as fold increase over baseline levels, which are set at a value of 1. Differences between groups were determined using a two-sided Student's t-test and one-way ANOVA. Error bars on plots represent±SEM, unless otherwise noted. All primers were purchased from Eurofins MWG Operon.

[6] = tested on: intestinal tumorigenesis
Procedure: Polyamine pools and Enzyme analyses. Tumor tissue was removed from intestine and was snap-frozen and stored at −70° C. Following removal of tumors, the normal small intestinal and colonic mucosa was scraped with a glass slide and snap-frozen. Frozen tissues were crushed into a fine powder. Specimens were homogenized in 1.2N perchloric acid and centrifuged to obtain the soluble supernatant extracts for polyamine analyses. Intracellular polyamine pools and acetylated polyamine pools were extracted with 1.2N perchloric acid, dansylated with dansyl chloride. The derivatized polyamines were separated on and analyzed using high-performance liquid chromatography on 150×4.6 mm ZORBAX SB-C18 column (Agilent) using methods described elsewhere. Polyamines were also quantitated by ELISA kit (Mybiosource, # MBS094198). For analysis of the enzyme activity, intestinal mucosal samples (4 mm^2) were immediately transferred to vials containing 0.5 ml of an ice-cold buffer [50 mM Tris-HCl (pH 7.5), 0.1 mM EDTA, and 0.1 mM pyridoxal phosphate)] and then homogenized and centrifuged. SSAT and ODC activities were determined by using C-labeled substrates and scintillation counting of end products produced as described previously (31) (or Cancer research SSAT mice).

[7] = SFN 10 μM + GM-CSF vs GM-CSF alone

C[S+]([O-])CCCCN=C=S (stereo not drawn) [SFN, Sulforaphane]
phosphorylation of AMPK at Thr172 [1]: increased phosphorylation of AMPK at Thr172 | phosphorylation of S6 and p70S6K [1]: decreased S6 phosphorylation | CD25 on CD4+ T cells induced by DC^SFN ([2]; vs DC^DMSO): lower expression | PD-1 on CD4+ T cells induced by DC^SFN ([2]; vs DC^DMSO): higher levels | IFN-γ production by CD4+ T cells primed with LPS-DC^SFN ([2]; vs LPS-treated DC^DMSO): less IFN-γ | IL-10 production by CD4+ T cells primed with LPS-DC^SFN ([2]; vs LPS-treated DC^DMSO): more IL-10 | IFN-γ production by CD4 T cells primed with DC^SFN ([2]; without LPS, vs DC^DMSO): negligible production of IFN-γ | IL-10 production (ELISA) ([3]; LPS 18 h, vs LPS alone): more IL-10 | IL-12, IL-23 production (ELISA) ([3]; LPS 18 h, vs LPS alone): produced less IL-12, IL-23 | expression of CD11c [3, 7]: lower expression of CD11c | expression of PD-L1 [3, 7]: higher expression of PD-L1 | numbers of transferred BMDC reaching the MLNs and colon [4]: lower numbers | expression of CSN8 and ODC ([5]; RT-PCR, vs DMSO): inhibited | expression of Nrf2 and SSAT1 ([5]; RT-PCR, vs DMSO): strongly activated | increase in SSAT1 caused by SFN ([5]; knockdown of both Nrf2 and CSN8): significantly inhibited the increase

NCCCCN [putrescine]
polyamines pool in the small intestine ([6]; 1% in drinking water): large increase | tumor number ([6]; APC^Min/+CSN8^fl/fl mice, vs control mice): an increase, but not statistically significant increase | epithelial cell proliferation (Ki-67) in the small intestines ([6]; APC^Min/+CSN8^ΔIEC): stimulated | polyp numbers in the small intestines ([6]; APC^Min/+CSN8^ΔIEC): strikingly increased | expression of nuclear Stat3, c-Myc and p21^(Cip1/WAF1) ([6]; APC^Min/+CSN8^ΔIEC mice, to that seen in APC^Min/+CSN8^fl/fl): restored the expression | polyp number in the colon ([6]; mouse, in vivo): no effect
